Reference: BindingDB's records for doi:10.1016/s0960-894x(98)00721-5 (Tumor Biology Center, 1999)

Target: Phospholipase A2 (Naja mossambica mossambica)
Assay: Phospholipase A2 inhibition using mixed micelles pH-stat assay and 14 kDa-Phospholipase A2 from Naja mossambica mossambica

Row | IC50 | Structure (SMILES)
1 | 5 µM | CCCCCCCCCCCCCCCC(=O)OCCCCCCC[C@H](COP(=O)(O)OC)NC(C)=O [Hexadecanoic acid (R)-8-acetylamino-9-(hydroxy-methoxy-phosphoryloxy)-nonyl ester]
2 | 3.1 µM | CCCCCCCC(=O)OCCCCCCC[C@H](COP(=O)(O)OC)NC(C)=O [Octanoic acid (R)-8-acetylamino-9-(hydroxy-methoxy-phosphoryloxy)-nonyl ester]
3 | 1.7 µM | CCCCCCCCCCCCCCCCOCCOCCCCCCC[C@H](COP(=O)(O)OC)NC(C)=O [Phosphoric acid (R)-2-acetylamino-9-(2-hexadecyloxy-ethoxy)-nonyl ester methyl ester]
4 | 350 µM | COP(=O)(O)OC[C@@H](CCCCCCCO)NC(C)=O [Phosphoric acid (R)-2-acetylamino-9-hydroxy-nonyl ester methyl ester]
5 | 3.4 µM | CCCCCCCCCCCCCCCC[C@H](COP(=O)(O)OC)NC(C)=O [Phosphoric acid (R)-2-acetylamino-octadecyl ester methyl ester]
6 | 2.3 µM | COP(=O)(O)OC[C@@H](CCCCCCCOC(=O)CCC(=O)OC1CCC2(C)C(=CCC3C2CCC2(C)C(C(C)CCCC(C)C)CCC32)C1)NC(C)=O (stereo partly drawn) [Succinic acid (R)-8-acetylamino-9-(hydroxy-methoxy-phosphoryloxy)-nonyl ester 17-(1,5-dimethyl-hexyl)-10,13-dimethyl-2,3,4,7,8,9,10,11,12,13,14,15,16,17-tetradecahydro-1H-cyclopenta[a]phenanthren-3-yl ester]
